Measurements from US20260265301A1, “LONG-ACTING K-OPIOID RECEPTOR AGONIST” (CHENGDU AODA BIOTECHNOLOGY CO., LTD, priority 2023, published 2026).
pEC50: −log10 of the molar value. Where a SMILES comes first, the peptide text is derived from it. Bridges are numbered along the chain shown (N, C = ends). Roman numbers before positions name the chains, in order. [ ]: non-standard residue; d: D form. The star is where a group is joined. X1 = O=C(O)CCCCCCCCCCCCCCCCC(=O)N[C@@H](CCC(=O)NCCOCCOCCOCCOCC(=O)*)C(=O)O; Api = NC1(C(=O)O)CCNCC1

Key:
[1] = biological target: T1, human κ opioid receptor (OPRK1) (Homo sapiens, UniProt P41145); assay: Agonist activity: inhibition of forskolin-stimulated cAMP release (HTRF) in CHO-K1 cells stably expressing opioid receptors; format: cell-based; conditions: for Relative Activity %: relative to Difelikefalin = 100%
T1 construct: expressed in transfected cells; host or cells: CHO-K1
From the text: Gi-coupled human κ opioid receptor (OPRK1), upon stimulation with its specific opioid receptor agonists, can inhibit the intracellular adenylate cyclase pathway, and decrease cAMP levels. Forskolin can stimulate cAMP release in cell lines highly expressing opioid receptors. By stimulating cell lines stably transfected with opioid receptors, the inhibitory effect of a test compound on forskolin-stimulated cAMP release can be measured to determine the activity of the compound. The relative light units (RLU) from the cells after stimulation with different doses were measured via the homogeneous time-resolved fluorescence (HTRF) technique, and the EC50 of the agonist was subsequently calculated. This activity determination method is a currently commonly used method for determining the activities of opioid receptor agonists at home and abroad.
A CHO-K1 cell line stably expressing opioid receptors was used. Stably transfected cells were stimulated with various concentrations of agonists (under the stimulation of a certain concentration of forskolin). The relative light units from the cells after stimulation with different doses were measured, from which the EC50 value of the agonist was subsequently obtained by calculation.

[2] = Preliminary pharmacokinetic properties after subcutaneous administration; format: in vivo; conditions: cynomolgus monkey; male Macaca fascicularis, subcutaneous (SC), 0.1 mg/kg, plasma, LC-MS; read-out: t½ (converted)
Method: The compound with the best activity was selected for determination of its preliminary pharmacokinetic properties. Two male Macaca fascicularis were used as experimental animals. A subcutaneous administration was performed at a dose of 0.1 mg/kg. Venous blood samples were collected before administration (0 h) and at 1 h, 2 h, 3 h, 4 h, 8 h, 12 h, 18 h, 24 h, 48 h, 96 h, 144 h, and 168 h post-administration. Plasma samples were separated by centrifugation. The plasma concentration of the compound in the plasma samples was determined using liquid chromatography-mass spectrometry.

T1 sequence (P41145 whole entry): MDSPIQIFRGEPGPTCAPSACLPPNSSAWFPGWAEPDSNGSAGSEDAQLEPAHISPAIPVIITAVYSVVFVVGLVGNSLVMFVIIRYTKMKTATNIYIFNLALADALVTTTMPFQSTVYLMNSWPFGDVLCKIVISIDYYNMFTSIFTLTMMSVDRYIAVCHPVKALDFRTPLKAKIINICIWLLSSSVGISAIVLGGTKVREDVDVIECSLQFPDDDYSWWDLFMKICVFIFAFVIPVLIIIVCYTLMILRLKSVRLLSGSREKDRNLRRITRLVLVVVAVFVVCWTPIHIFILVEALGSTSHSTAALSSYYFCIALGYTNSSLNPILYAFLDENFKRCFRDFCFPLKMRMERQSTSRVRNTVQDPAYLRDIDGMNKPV

Compound	Relative Activity % [1]	half-life [2]	pEC50 ([1]; CHO-K1 cell line stably expressing opioid receptors, forskolin-stimulated cAMP, HTRF)
CCOc1ccc(C[C@@H](NC(=O)[C@H](N)Cc2ccccc2)C(=O)N[C@H](CC(C)C)C(=O)N[C@H](CCCCN)C(=O)N2CCC(N)(C(=O)N[C@@H](CCCCNC(=O)COCCOCCOCCOCCNC(=O)CC[C@H](NC(=O)CCCCCCCCCCCCCCCCC(=O)O)C(=O)O)C(N)=O)CC2)cc1 [Compound 1, D-Phe-D-Tyr(Et)-D-Leu-D-Lys-4-aminopiperidine-4-carboxamide-Lys(PEG4CH2CO-γGlu-octadecanedioic acid)-NH2]	15.6%	–	–
CCOc1ccc(C[C@@H](NC(=O)[C@H](N)Cc2ccccc2)C(=O)N[C@H](CC(C)C)C(=O)N[C@H](CCCCN)C(=O)N2CCC(N)(C(=O)NCCOCC(=O)N[C@@H](CCCCNC(=O)COCCOCCOCCOCCNC(=O)CC[C@H](NC(=O)CCCCCCCCCCCCCCCCC(=O)O)C(=O)O)C(N)=O)CC2)cc1 [Compound 2, D-Phe-D-Tyr(Et)-D-Leu-D-Lys-4-aminopiperidine-4-carboxamide-PEG1CH2CO-Lys(PEG4CH2CO-γGlu-octadecanedioic acid)-NH2]	20.7%	–	–
CCOc1ccc(C[C@@H](NC(=O)[C@H](N)Cc2ccccc2)C(=O)N[C@H](CC(C)C)C(=O)N[C@H](CCCCN)C(=O)N2CCC(N)(C(=O)NCCOCCOCC(=O)N[C@@H](CCCCNC(=O)COCCOCCOCCOCCNC(=O)CC[C@H](NC(=O)CCCCCCCCCCCCCCCCC(=O)O)C(=O)O)C(N)=O)CC2)cc1 [Compound 3, D-Phe-D-Tyr(Et)-D-Leu-D-Lys-4-aminopiperidine-4-carboxamide-AEEA-Lys(PEG4CH2CO-γGlu-octadecanedioic acid)-NH2]	23.8%	55.1 h	–
CCOc1ccc(C[C@@H](NC(=O)[C@H](N)Cc2ccccc2)C(=O)N[C@H](CC(C)C)C(=O)N[C@H](CCCCN)C(=O)N2CCC(N)(C(=O)NCCOCCOCCOCCOCC(=O)N[C@@H](CCCCNC(=O)COCCOCCOCCOCCNC(=O)CC[C@H](NC(=O)CCCCCCCCCCCCCCCCC(=O)O)C(=O)O)C(N)=O)CC2)cc1 [Compound 4, D-Phe-D-Tyr(Et)-D-Leu-D-Lys-4-aminopiperidine-4-carboxamide-PEG4CH2CO-Lys(PEG4CH2CO-γGlu-octadecanedioic acid)-NH2]	17.2%	–	–
COc1ccc(C[C@@H](NC(=O)[C@H](N)Cc2ccccc2)C(=O)N[C@H](CC(C)C)C(=O)N[C@H](CCCCN)C(=O)N2CCC(N)(C(=O)NCCOCCOCC(=O)N[C@@H](CCCCNC(=O)COCCOCCOCCOCCNC(=O)CC[C@H](NC(=O)CCCCCCCCCCCCCCCCC(=O)O)C(=O)O)C(N)=O)CC2)cc1 [Compound 5, D-Phe-D-Tyr(Me)-D-Leu-D-Lys-4-aminopiperidine-4-carboxamide-AEEA-Lys(PEG4CH2CO-γGlu-octadecanedioic acid)-NH2]	13.6%	–	–
CC(C)C[C@@H](NC(=O)[C@@H](Cc1ccc(Cl)cc1)NC(=O)[C@H](N)Cc1ccccc1)C(=O)N[C@H](CCCCN)C(=O)N1CCC(N)(C(=O)NCCOCCOCC(=O)N[C@@H](CCCCNC(=O)COCCOCCOCCOCCNC(=O)CC[C@H](NC(=O)CCCCCCCCCCCCCCCCC(=O)O)C(=O)O)C(N)=O)CC1 [Compound 6, D-Phe-D-Phe(4-Cl)-D-Leu-D-Lys-4-aminopiperidine-4-carboxamide-AEEA-Lys(PEG4CH2CO-γGlu-octadecanedioic acid)-NH2]	12.2%	–	–
CC(C)C[C@@H](NC(=O)[C@@H](Cc1ccc(F)cc1)NC(=O)[C@H](N)Cc1ccccc1)C(=O)N[C@H](CCCCN)C(=O)N1CCC(N)(C(=O)NCCOCCOCC(=O)N[C@@H](CCCCNC(=O)COCCOCCOCCOCCNC(=O)CC[C@H](NC(=O)CCCCCCCCCCCCCCCCC(=O)O)C(=O)O)C(N)=O)CC1 [Compound 7, D-Phe-D-Phe(4-F)-D-Leu-D-Lys-4-aminopiperidine-4-carboxamide-AEEA-Lys(PEG4CH2CO-γGlu-octadecanedioic acid)-NH2]	10.5%	–	–
CCOc1ccc(C[C@@H](NC(=O)[C@H](N)Cc2ccccc2)C(=O)N[C@H](CC(C)C)C(=O)N[C@H](CCCCN)C(=O)N2CCC(N)(C(=O)NCCOCCOCC(=O)N[C@@H](CCCCNC(=O)COCCOCCOCCNC(=O)CC[C@H](NC(=O)CCCCCCCCCCCCCCCCC(=O)O)C(=O)O)C(N)=O)CC2)cc1 [Compound 8, D-Phe-D-Tyr(Et)-D-Leu-D-Lys-4-aminopiperidine-4-carboxamide-AEEA-Lys(PEG3CH2CO-γGlu-octadecanedioic acid)-NH2]	17.7%	–	–
CCOc1ccc(C[C@@H](NC(=O)[C@H](N)Cc2ccccc2)C(=O)N[C@H](CC(C)C)C(=O)N[C@H](CCCCN)C(=O)N2CCC(N)(C(=O)NCCOCCOCC(=O)N[C@@H](CCCCNC(=O)COCCOCCOCCOCCOCCNC(=O)CC[C@H](NC(=O)CCCCCCCCCCCCCCCCC(=O)O)C(=O)O)C(N)=O)CC2)cc1 [Compound 9, D-Phe-D-Tyr(Et)-D-Leu-D-Lys-4-aminopiperidine-4-carboxamide-AEEA-Lys(PEG5CH2CO-γGlu-octadecanedioic acid)-NH2]	16.4%	–	–
CCOc1ccc(C[C@@H](NC(=O)[C@H](N)Cc2ccccc2)C(=O)N[C@H](CC(C)C)C(=O)N[C@H](CCCCN)C(=O)N2CCC(N)(C(=O)NCC(=O)N[C@@H](CCCCNC(=O)COCCOCCOCCOCCNC(=O)CC[C@H](NC(=O)CCCCCCCCCCCCCCCCC(=O)O)C(=O)O)C(N)=O)CC2)cc1 [Compound 10, D-Phe-D-Tyr(Et)-D-Leu-D-Lys-4-aminopiperidine-4-carboxamide-Gly-Lys(PEG4CH2CO-γGlu-octadecanedioic acid)-NH2]	15.1%	–	–
CCOc1ccc(C[C@@H](NC(=O)[C@H](N)Cc2ccccc2)C(=O)N[C@H](CC(C)C)C(=O)N[C@H](CCCCN)C(=O)N2CCC(N)(C(=O)NCC(=O)NCC(=O)N[C@@H](CCCCNC(=O)COCCOCCOCCOCCNC(=O)CC[C@H](NC(=O)CCCCCCCCCCCCCCCCC(=O)O)C(=O)O)C(N)=O)CC2)cc1 [Compound 11, D-Phe-D-Tyr(Et)-D-Leu-D-Lys-4-aminopiperidine-4-carboxamide-Gly-Gly-Lys(PEG4CH2CO-γGlu-octadecanedioic acid)-NH2] (I: H-[Api]GGK(X1)-NH2 / II: H-[dF][dY](Et)[dL][dK]; amide I:1-II:C; N-terminus assumed)	16.9%	–	–
CCOc1ccc(C[C@@H](NC(=O)[C@H](N)Cc2ccccc2)C(=O)N[C@H](CC2CC2)C(=O)N[C@H](CCCCN)C(=O)N2CCC(N)(C(=O)NCCOCCOCC(=O)N[C@@H](CCCCNC(=O)COCCOCCOCCOCCNC(=O)CC[C@H](NC(=O)CCCCCCCCCCCCCCCCC(=O)O)C(=O)O)C(N)=O)CC2)cc1 [Compound 12, D-Phe-D-Tyr(Et)-D-Cyclopropylalanine-D-Lys-4-aminopiperidine-4-carboxamide-AEEA-Lys(PEG4CH2CO-γGlu-octadecanedioic acid)-NH2]	15.2%	–	–
CC(C)C[C@@H](NC(=O)[C@@H](Cc1ccccc1)NC(=O)[C@H](N)Cc1ccccc1)C(=O)N[C@H](CCCCN)C(=O)N1CCC(N)(C(=O)O)CC1 [Difelikefalin, reference compound]	–	–	9.19
